# Legend:
# [1] = tested on: Th1 (chronic and acute atopic dermatitis) mediated inflammation; test: Ex vivo induced inflammation of human skin explants, Th1 stimulation; type: cell-based; details: topical at 40 h and 16 h prior to stimulation; degree comparable/improved to 1% hydrocortisone ointment (FIG. 6)
# Method: (§1) The efficacy of CBDA-Me was compared to that of corticosteroid treatment in an ex vivo model of induced inflammation of human skin explants (see for example WO2019/063122 and WO2014/182655).
# (§2) Freshly excised healthy human skin was dermatomed to an approximate thickness of 750±100 μm. The dermatomed skin was cut into 1 cm^2 sections and mounted onto static Franz cells with a dosing area of approximately 0.6 cm^2.
# (§3) The experiment was performed as follows: • (i) Static Franz cells (n=4 per treatment), with an average surface area of approximately 0.6 cm^2 and a volume of approximately 2.0 mL were employed. • (ii) Skin was mounted onto the static Franz cell, Stratum corneum side up, and clamped into place. • (iii) The receptor compartment was filled with approximately 2 mL of warm (ca. 37° C.) Cornification media. • (iv) CBDA-Me or 1% Perrigo® hydrocortisone ointment (control) was applied topically at 40 hours and 16 hours prior to stimulation and was incubated at 37° C. with 5% C02. • (v) The contents of the receptor compartment from each cell was vacuum aspirated and replaced with 2 mL pre-warmed (ca. 37° C.) cornification media, containing either Th1 or Th17 stimulation cocktail. • (vi) Tissue explants were harvested at 24 hours post-stimulation and placed in RNAlater® solution for further processing. […]
# [2] = tested on: Th17 (psoriasis) mediated inflammation; test: Ex vivo induced inflammation of human skin explants, Th17 stimulation; type: cell-based; details: topical at 40 h and 16 h prior to stimulation; degree comparable/improved to 1% hydrocortisone ointment (FIG. 7)
# Method: as §1, §2, §3
# [3] = tested on: DSS induced acute colitis; test: DSS induced acute colitis mouse model, Example 11; type: in vivo, C57BL/6 mice
# Method: The therapeutic effect of CBDA-Me on inflammatory bowel disease (IBD) was examined in an acute colitis mouse model. Colitis was induced in 10 weeks old female C57BL/6 mice using dextran sodium sulphate (DSS). Mice were fed for 8 days with 2% (wt/vol) DSS in their drinking water. Mice were administered (3 animals in each group) one of the following treatments by gavage: CBD (400 mg/kg), CBDA-Me (10 mg/kg or 40 mg/kg), DSS alone (untreated control), prednisone (90 mg/kg, control), none (healthy mice).
# (§4) Weight loss was measured on days 1, 3, 5, 8, and 10.
# (§5) Next, the mice were sacrificed and the length of their colons were measured.
# Cytokine levels of IL-6 and TNFα were measured using ELISA kits (R&D Systems, USA). Colon TNFα (FIG. 10), blood IL-6 (FIG. 11), and mouse endoscopic index of colitis severity (METICS) scoring levels (FIG. 12) were lower in mice treated with CBDA-Me compared to CBD. Representative photos of colonoscopy can be seen in FIG. 13A-13E.
# [4] = tested on: chronic colitis in IL-10 KO mice; test: Chronic colitis mouse model (IL-10 KO), Example 12; type: in vivo; details: IL-10 KO mice fed twice a day for 13 weeks
# Method: Mice with targeted discruption of the IL-10 gene (IL-10 KO) and littermate wild-type controls (IL-10 WT) were used (see for example Scheinin et al., Clin. Exp. Immunol., 2003, 133:38-43). After 4 weeks of age mice were fed twice a day for 13 weeks with one of the following treatments: CBD, CBDA-Me, an anti-TNF antibody (control), none (untreated control mice). The CBDA-Me efficacy is compared to CBD and controls.
# Cytokine levels of IL-1B and TNFα were measured using ELISA kits (R&D Systems, USA). Colon TNFα (FIG. 14), blood IL-1b (FIG. 15), and mouse endoscopic index of colitis severity (MEICS) scoring levels (FIG. 16) were lower in mice treated with CBDA-Me compared to CBD.
# [5] = tested on: Human Endometrial Stromal Cell Line (SHT290); test: In vitro endometriosis model: attachment and proliferation of endometrial stromal cells; type: cell-based; details: added to the medium; dose dependent fashion
# Method: Cultured cells from Human Endometrial Stromal Cell Line (SHT290) were used. CBDA-Me was added to the medium and the attachment of cells and their proliferation rate were measured.
# [6] = tested on: endometriosis induced by implantation of rat uterine cornu on the mesenterium; test: In vivo rat endometriosis model, pain response to oxytocin; details: day 24; injected intra-peritoneally after 21 days; as compared to the control (saline)
# Method: Endometriosis was induced by implantation of rat uterine comu on the mesenterium. The tissue was allowed to proliferate in vivo for 21 days. After 21 days, rats in the control group were injected intra-peritoneally with saline while rats in the experimental group were injected with CBDA-Me. Pain response to oxytocin was measured on day 24. The pain response decreased by 50% in the group treated with CBDA-Me as compared to the control.
# [7] = target: T1, serotonin 5-HT1A Receptor (Homo sapiens, UniProt P08908); details: CBDA activates the receptor; background statement; cited from earlier work
# T1 sequence (P08908 1-422): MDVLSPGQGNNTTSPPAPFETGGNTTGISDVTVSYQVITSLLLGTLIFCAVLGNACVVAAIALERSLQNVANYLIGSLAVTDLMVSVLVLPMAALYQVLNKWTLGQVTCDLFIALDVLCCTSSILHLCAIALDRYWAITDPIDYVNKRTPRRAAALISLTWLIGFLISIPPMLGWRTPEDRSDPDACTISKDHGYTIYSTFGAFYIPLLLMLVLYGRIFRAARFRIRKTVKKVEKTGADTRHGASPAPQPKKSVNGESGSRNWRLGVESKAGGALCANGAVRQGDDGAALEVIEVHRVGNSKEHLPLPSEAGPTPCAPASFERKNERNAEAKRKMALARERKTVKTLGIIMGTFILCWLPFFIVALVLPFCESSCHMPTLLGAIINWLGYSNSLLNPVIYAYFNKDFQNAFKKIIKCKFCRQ
# [8] = tested on: partial meniscectomy/ACL transection rat model of surgical induced osteoarthritis and pain induced incapacitance; test: Weight bearing in rat meniscectomy model versus hyaluronate and corticosteroid, Example 6; type: in vivo
# Method: Rats were allowed to acclimatize for 1 week, followed by assessment of their weight bearing preference using an incapacitance meter. Unilateral medical meniscectomy and anterior cruciate ligament […] (MMX/ACLT) surgery was performed on the right knee of a subject rat. Weight bearing preference was tested before and after surgery. After 2 weeks, treatments with both intra-articular (1) and. intra-peritoneal (6) administrations of EPM301 began in the EPM301 group. In the hyaluronate (HA) and corticosteroid (CS) groups, a single intra-articular injection was performed 2 weeks after model induction. Weight bearing preference was then assessed 4 and 7 days after the start of therapy.
# Wistar Rats (HsdHan female rats 225-249 grams) were acquired from Envigo. The rats were evaluated using an incapacitance tester. They were tested pre-operation, one-week post-operation, two weeks post-operation, prior to injection, 4 and 7 days post injections.
# EPM-301 was dissolved in a solution mixture of 1:1:18 EtOH:cremophor:seline to a final concentration of 3.5 mg/mL. Hyaluronic acid (Arthrease, 1% sodium hyaluronate) and Dexamethasone (kem Pharma, Venus, 72, Pol. Ind. Colom II, 08228 Terrassa, Barcelona) were acquired.
# Intra-articular (i.a.) injection was carried out with 100 uL and intra-peritoneal (i.p.) injections were carried out with 150 uL. All were injected i.a. in the first day. EPM-301 was injected via i.p. administration on the first day, and for 5 additional days everyday via i.p. administration.
# Student's t-test was performed at the last follow-up time to determine effect of the therapy as primary endpoint. The level of significance was 0.05 alpha. ANOVA was used to compare all time points, a post-hob analysis with the Scheffe all comparisons method was performed. Calculations were performed using the Analyze-it Excel add-on function.
# The percentage of weight bearing was calculated as the amount of weight born (in grams) on the right hind limb divided by the amount of weight born on the left hind limb. This ratio was expressed as percentage weight bearing. Prior to operation the Rt/Lt weight bearing in both groups was similar. There were 4 animals in the EPM-301 treated group and 8 animals in each of the HA and CS treated groups, with a total of 20 tested subjects.
# [9] = tested on: DSS induced acute colitis; test: DSS induced acute colitis mouse model, EPM-301 versus EPM-302, Example 13; type: in vivo, C57BL/6 mice; details: 10 mg/kg
# Method: Colitis was induced in 10 weeks old female C57BL/6 mice using dextran sodium sulphate (DSS). Mice were fed for 8 days with 2% (wt/vol) DSS in their drinking water. […] EPM-302 served as an additional control.
# as §4, §5
# Cytokine levels of IL-6 and TNFα were measured using ELISA kits (R&D Systems, USA). Colon TNFα (FIG. 19), blood IL-6 (FIG. 20), levels were lower in mice treated with CBDA-Me (EPM-301) as compared to EPM-302. Similarly, the MEICS score of EPM-301 treated subjects were also lower than EPM-302 treated subjects (FIG. 21). Representative photos of colonoscopy can be seen in FIG. 22A-22D.
# [10] = target: T2, glucose transporter 2 (GLUT2) (Homo sapiens, UniProt P11168); test: 2-NBDG glucose uptake in transfected HEK293t cells; type: cell-based; details: 50-0.1 μM tested
# T2 construct: expressed in transfected cells; host or cells: HEK293t
# T2 sequence (P11168 1-524): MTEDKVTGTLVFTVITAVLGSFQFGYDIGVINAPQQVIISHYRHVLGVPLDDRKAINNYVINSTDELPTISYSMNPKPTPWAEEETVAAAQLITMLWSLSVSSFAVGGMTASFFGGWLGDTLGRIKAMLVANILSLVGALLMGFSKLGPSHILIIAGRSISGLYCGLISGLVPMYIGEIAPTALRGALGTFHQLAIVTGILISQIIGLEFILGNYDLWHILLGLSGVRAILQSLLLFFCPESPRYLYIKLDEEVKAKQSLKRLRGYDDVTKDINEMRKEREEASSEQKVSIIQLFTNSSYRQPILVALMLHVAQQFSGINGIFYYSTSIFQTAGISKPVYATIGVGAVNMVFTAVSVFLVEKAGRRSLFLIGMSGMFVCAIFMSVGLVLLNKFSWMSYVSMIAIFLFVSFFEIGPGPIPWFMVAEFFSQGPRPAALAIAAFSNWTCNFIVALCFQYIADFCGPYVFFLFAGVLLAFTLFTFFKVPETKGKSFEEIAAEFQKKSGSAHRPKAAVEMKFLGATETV
# Method: In vitro assays for measuring glucose uptake were designed to assess whether EPM-301 and EPM-302 compounds are capable of inhibiting or increasing glucose uptake via glucose transporters (GLUTs).
# Transfected HEK293t cells, which express the glucose transporter 2 (GLUT2), were cultured in a 96 well plate and maintained at 37° C. in 5% CO2 in DMEM medium supplemented with 10% FCS, 2 mM 1-glutamine, 1 mM sodium pyruvate, 100 U/mL penicillin, and […] streptomycin for 24 h. The medium was then washed with a choline chloride Na^+-free buffer (CCB), in which only GLUTs (and not the sodium/glucose transporters [SGLTs]) were active. The wells were then added with CCB/CCB+2-NBDG (a fluorescent derivative of glucose). Compounds were tested in a range of concentrations for their ability to inhibit/increase 2-NBDG uptake into the cells. After 1.5 h incubation, cells were washed with CCB and incubated with 1 μg/μL of Hoechst for 15 mins at 37° C. and protected from light. Fluorescence was measured by the Cytation-3 plate reader at ex:485 nm/em:528 nm and ex:350 nm/em:461 nm for 2-NBDG Hoechst, respectively. Results of the 2-NBDG levels were normalized to Hoechst levels of each well, and presented as a change in the uptake of 2-NBDG in comparison with Vehicle-treated group.
# Vehicle solution (choline chloride buffer), EPM-301 (50-0.1 μM), and EPM-302 (50-0.1 μM) were used for the experiments.
# Values are expressed as mean±SEM. Unpaired two-tailed student's t-test was used to determine the differences between the groups. Significance was set at p<0.05. *versus vehicle; #versus control.
smiles,measurement,setting,value
"C=C(C)[C@@H]1CCC(C)=CC1c1c(O)cc(CCCCC)c(C(=O)OC)c1O (stereo in doubt) [EPM-301, cannabidiolic acid methyl ester]","Th1 mediated inflammation (IFNγ, TNFα, IL1β, IL2, IL13 by RT-qPCR)",[1],inhibition
same,"Th17 mediated inflammation (IL17α, IL22, CXCL10, IL36g, SerpinB4 by RT-qPCR)",[2],inhibition
same,weight loss,"[3]; 40 mg/kg by gavage, compared to CBD (400 mg/kg), days 1-10 (FIG. 8)",reduced
same,colon length,"[3]; 40 mg/kg by gavage, versus CBD and untreated control mice, similar to prednisone (FIG. 9)",greater
same,mouse endoscopic index of colitis severity scoring,[3]; compared to CBD (FIG. 12),lower
same,colon TNFα,"[3]; compared to CBD, ELISA (FIG. 10)",lower
same,blood IL-6,"[3]; compared to CBD, ELISA (FIG. 11)",lower
same,colon TNFα,[4]; compared to CBD (FIG. 14),lower
same,blood IL-1b,[4]; compared to CBD (FIG. 15),lower
same,mouse endoscopic index of colitis severity (MEICS) scoring,[4]; compared to CBD (FIG. 16),lower
same,attachment of cells,[5],decrease
same,proliferation rate,[5],decrease
same,decrease of pain response to oxytocin,[6],50%
"C=C(C)C1CCC(C)=CC1c1c(O)cc(CCCCC)c(C(=O)O)c1O (stereo not shown) [CBDA, 2,4-dihydroxy-3-[3-methyl-6-prop-1-en-2-ylcyclohex-2-en-1-yl]-6-pentylbenzoic acid]",affinity for the 5-HT1A receptor relative to CBD,[7],significantly greater
"C[C@@H]1C[C@H]2[C@@H]3CCC4=CC(=O)C=C[C@]4(C)[C@@]3(F)[C@@H](O)C[C@]2(C)[C@@]1(O)C(=O)CO [CS, Dexamethasone, reference compound]",Rt limb weight bearing,"[8]; following injections, EPM-301 i.a. once plus i.p. 6 days, HA and CS single i.a. injection",62.1%
same,weight bearing,"[8]; immediately prior to injection, two weeks following model induction (baseline before treatment)",52.5%
CCCCCc1cc(O)c(C2C=C(C)CCC2C(C)C)c(O)c1C(=O)OC (stereo not shown) [EPM-302],therapeutic effect,[9],not enough to induce a therapeutic effect
same,concentration at which the effect on glucose transport was observed,[10],all concentrations tested
same,glucose uptake (2-NBDG) in HEK293 cells,"[10]; 1.5 h incubation, versus vehicle (FIG. 36A, 36B)",significantly reduce
